Source: ChEMBL document CHEMBL1201862, “PubChem BioAssay data set” (2004)
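The compound was tested at five concentrations on cells cultured in 96-well plates, with a 48-hour exposure period. Abbreviation: GI50, concentration required for 50% inhibition of growth.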 The source made the active and inactive calls. Rule as the data show it: active = GI50 up to about 1.1 µM and inactive = higher.

What was measured:
Assay in all cases: inhibition of tumour cell growth, NCI panel, 48 h
[1] = system: CCRF-CEM
[2] = system: COLO 205
[3] = system: DLD-1
[4] = system: KM12
[5] = system: MCF7
[6] = system: NCI/ADR-RES
[7] = system: RPMI-8226
[8] = system: SK-OV-3
[9] = system: UO-31
[10] = system: 786-0
[11] = system: SR
[12] = system: TK-10
[13] = system: BT-549
[14] = system: DU-145
[15] = system: Hs-578T
[16] = system: MDA-MB-231
[17] = system: MDA-MB-435
[18] = system: MDA-N
[19] = system: PC-3
[20] = system: T47D

Measured: GI50

CN(C)CCSc1nccc(-c2ccc(-c3ccnc(SCCN(C)C)n3)s2)n1
inactive: [1] 1.43 µM | [2] 9.4 µM | [3] 4.81 µM | [4] 4.91 µM | [5] 4.45 µM | [6] 4.91 µM | [7] 2.69 µM | [8] 19.1 µM | [9] 4.94 µM

CCOC(=O)CC(NC(=O)c1ccc(/N=N/N(C)C)cc1)C(=O)OCC (stereo not drawn)
inactive: [10] > 100 µM | [1] > 100 µM | [2] > 100 µM | [3] > 100 µM | [4] > 100 µM | [7] > 100 µM | [8] > 100 µM | [11] > 100 µM | [12] > 100 µM | [9] > 100 µM

Cc1cc2c(C(C)C)c(O)c(O)c(/C=N/c3ccccc3)c2c(O)c1-c1c(C)cc2c(C(C)C)c(O)c(O)c(/C=N/c3ccccc3)c2c1O
inactive: [1] > 100 µM | [2] > 100 µM | [3] > 100 µM | [4] > 100 µM | [7] > 100 µM | [8] > 100 µM | [11] > 100 µM | [12] > 100 µM | [9] > 100 µM

COc1nc(N)nc2nc[nH]c12
inactive: [10] 489 µM | [13] 232 µM | [1] 331 µM | [2] 393 µM | [3] 385 µM | [14] 478 µM | [15] 416 µM | [4] > 500 µM | [5] 490 µM | [16] 444 µM | [17] > 500 µM | [18] > 500 µM | [6] > 500 µM | [19] 466 µM | [7] 417 µM | [8] 129 µM | [11] 313 µM | [20] 418 µM | [12] 242 µM | [9] 239 µM
